Entries after “also recorded” stand apart in the source; their conditions may differ. Residues, ends and D or L forms follow the SMILES beside them. *: point of attachment. 5FAM = O=C1OC2(c3ccc(O)cc3Oc3cc(O)ccc32)c2ccc(C(=O)*)cc21
What was measured:
[1] = target: T1, IN1−288 F185K/C250S (HIV-1 integrase) (Human immunodeficiency virus type 1 group M subtype B, UniProt P12497, C1427S/F1332K); assay: Fluorescence anisotropy binding of fluorescein-labeled IN181−188 peptides to IN; conditions: for Hill coefficient (n): fluorescence anisotropy, IN titrated into 100 nM fluorescein-labeled peptide, 10°C, ionic strength 1 M (NaCl), fit to Hill equation
T1 construct: we first expressed and purified IN1−288 F185K/C250S as previously described; made in house
Procedure: To test the activity of the cyclic peptide-peptoid hybrids, we first expressed and purified IN1−288 F185K/C250S as previously described (Gabizon et al., [2013]). The double mutant protein was used since it has similar activity as the wild-type but higher solubility (Jenkins et al., [1996]). […] The Hill coefficient for all the cyclic peptides was approximately 4, indicating cooperative binding of the peptides to tetrameric IN.
IN was titrated into a solution of 100 nM fluorescein labeled (Fl) IN181−188 cyclic peptides and into linear IN181−188, which served as a control. Anisotropy measurements were performed generally as described (Friedler et al., [2002]) at 10°C with ionic strength of 1 M (adjusted by NaCl) and the binding curves were fit to the Hill equation (Figure 8, Table 1).

trypsin = assay: 7 μL of 8 μM trypsin added to peptide in 360 μL of HEPES 20 mM pH = 7.5; conditions: 37 °C, up to about 30 h

Compound | Kd [1] [µM] | Hill coefficient (n) [1] | fragment found (trypsin)
CC[C@H](C)[C@@H]1NC(=O)[C@H](Cc2ccccc2)NC(=O)CN(C(=O)[C@H](Cc2c[nH]c3ccccc23)NC(=O)c2ccc3c(c2)C(=O)OC32c3ccc(O)cc3Oc3cc(O)ccc32)CCCn2cc(nn2)CN(CC(N)=O)C(=O)[C@H](CCCCN)NC(=O)[C@H](CCCNC(=N)N)NC(=O)[C@H](CCCCN)NC(=O)[C@H](Cc2ccccc2)NC(=O)[C@H](CC(N)=O)NC(=O)[C@H](Cc2c[nH]cn2)NC1=O [Fl-C-1] | 8.1 ± 0.2 | 3.8 ± 0.4 | 
CC[C@H](C)[C@@H]1NC(=O)[C@H](Cc2ccccc2)NC(=O)CN(C(=O)[C@H](Cc2c[nH]c3ccccc23)NC(=O)c2ccc3c(c2)C(=O)OC32c3ccc(O)cc3Oc3cc(O)ccc32)Cc2cn(nn2)CCCN(CC(N)=O)C(=O)[C@H](CCCCN)NC(=O)[C@H](CCCNC(=N)N)NC(=O)[C@H](CCCCN)NC(=O)[C@H](Cc2ccccc2)NC(=O)[C@H](CC(N)=O)NC(=O)[C@H](Cc2c[nH]cn2)NC1=O [Fl-C-2] | 9 ± 0.2 | 3.8 ± 0.3 | 
CC[C@H](C)[C@@H]1NC(=O)[C@H](Cc2ccccc2)NC(=O)CN(C(=O)[C@H](Cc2c[nH]c3ccccc23)NC(=O)c2ccc3c(c2)C(=O)OC32c3ccc(O)cc3Oc3cc(O)ccc32)CCn2cc(nn2)CN(CC(N)=O)C(=O)[C@H](CCCCN)NC(=O)[C@H](CCCNC(=N)N)NC(=O)[C@H](CCCCN)NC(=O)[C@H](Cc2ccccc2)NC(=O)[C@H](CC(N)=O)NC(=O)[C@H](Cc2c[nH]cn2)NC1=O [Fl-C-3] | 7.7 ± 0.5 | 2.8 ± 0.5 | 
CC[C@H](C)[C@@H]1NC(=O)[C@H](Cc2ccccc2)NC(=O)CN(C(=O)[C@H](Cc2c[nH]c3ccccc23)NC(=O)c2ccc3c(c2)C(=O)OC32c3ccc(O)cc3Oc3cc(O)ccc32)Cc2cn(nn2)CCN(CC(N)=O)C(=O)[C@H](CCCCN)NC(=O)[C@H](CCCNC(=N)N)NC(=O)[C@H](CCCCN)NC(=O)[C@H](Cc2ccccc2)NC(=O)[C@H](CC(N)=O)NC(=O)[C@H](Cc2c[nH]cn2)NC1=O [Fl-C-4] | 7 ± 0.2 | 2.5 ± 0.2 | 
CC[C@H](C)[C@H](NC(=O)[C@H](Cc1ccccc1)NC(=O)CNC(=O)[C@H](Cc1c[nH]c2ccccc12)NC(=O)c1ccc2c(c1)C(=O)OC21c2ccc(O)cc2Oc2cc(O)ccc21)C(=O)N[C@@H](Cc1c[nH]cn1)C(=O)N[C@@H](CC(N)=O)C(=O)N[C@@H](Cc1ccccc1)C(=O)N[C@@H](CCCCN)C(=O)N[C@@H](CCCNC(=N)N)C(=O)N[C@@H](CCCCN)C(=O)NCC(N)=O [Fl-WT IN181−188, reference compound] (5FAM-WGFIHNFKRKG-NH2; N-terminus assumed) | 7.6 ± 0.2 | 3.6 ± 0.4 | 
H2N-W-G(N-alkyl)-F-I-H-N-F-K-R-K-G(N-alkyl)-NH2, the two N-alkyl groups joined by a triazole bridge (n=3, R=H) |  |  | digested C-2 (C-2 + 18 Da, addition of water)
H2N-W-G(N-propargyl)-F-I-H-N-F-K-R-K-G(N-(CH2)3-N3)-NH2 |  |  | G(N-propargyl)FIHNFKR, major; also recorded: G(N-propargyl)FIHNFK

From publication PMC7248394 (Frontiers in Chemistry, 2020)
